From ChEMBL document CHEMBL4020814, “Synthesis, Binding Mode, and Antihyperglycemic Activity of Potent and Selective (5-Imidazol-2-yl-4-phenylpyrimidin-2-yl)[2-(2-pyridylamino)ethyl]amine Inhibitors of Glycogen Synthase Kinase 3” (J Med Chem, 2017)

Tests used:
[1] = Inhibition of human GSK3 using biotin-CREB peptide substrate after 1 hr by scintillation counting method
[2] = Inhibition of GSK3 expressed in CHO-IR cells expressing human insulin receptor assessed as glycogen synthase activation after 30 mins by filter paper assay; format: cell-based, Cavia porcellus

SMILES: CC(=O)Nc1cnc(NCCNc2ccc([N+](=O)[O-])c(N)n2)nc1-c1ccc(Cl)cc1Cl
- IC50 [1]: 0.006 µM
- EC50 [2]: 0.19 µM

SMILES: CN(C)CCNC(=O)c1cnc(NCCNc2ccc([N+](=O)[O-])cn2)nc1-c1ccc(C#N)cc1
- IC50 [1]: 0.071 µM
- EC50 [2]: > 10 µM

SMILES: Nc1nc(NCCNc2ncc(N3CCNCC3)c(-c3ccc(Cl)cc3Cl)n2)ccc1[N+](=O)[O-]
- IC50 [1]: 0.018 µM
- EC50 [2]: 0.51 µM

SMILES: CN(CCNc1ccc([N+](=O)[O-])cn1)c1ncc(-n2ccnc2)c(-c2ccc(Cl)cc2Cl)n1
- IC50 [1]: 0.022 µM
- EC50 [2]: 0.08 µM

SMILES: Clc1ccc(-c2nc(NCCNc3cc(Cl)ncn3)ncc2-n2ccnc2)c(Cl)c1
- IC50 [1]: 0.201 µM
- EC50 [2]: 3.9 µM

SMILES: O=[N+]([O-])c1ccc(NCCN(CCc2ccccn2)c2ncc(-n3ccnc3)c(-c3ccc(Cl)cc3Cl)n2)nc1
- IC50 [1]: 0.113 µM

SMILES: O=[N+]([O-])c1ccc(NCCNc2ncc(-n3ccnc3)c(-c3ccc(C(F)(F)F)cc3)n2)nc1
- IC50 [1]: 0.04 µM
- EC50 [2]: 2.5 µM

SMILES: O=[N+]([O-])c1ccc(NCCNc2ncc(-n3ccnc3)c(-c3ccc(N4CCCCC4)cc3)n2)nc1
- IC50 [1]: 0.777 µM

SMILES: CCOC(=O)C1=C(c2ccc([N+](=O)[O-])cc2)N=C(NCCNc2ccc([N+](=O)[O-])cn2)NC1c1ccc(C(N)=O)cc1 (stereo unspecified)
- IC50 [1]: 2 µM

SMILES: O=[N+]([O-])c1ccc(NCCNc2ncc(-n3ccnc3)c(-c3ccc(F)cc3)n2)nc1
- IC50 [1]: 0.2 µM

SMILES: N#Cc1ccc(-c2nc(NCCNc3ccc([N+](=O)[O-])cn3)ncc2C(=O)OCc2ccccc2)cc1
- IC50 [1]: 0.19 µM

SMILES: CC(C)(C)c1c[nH]c(-c2cnc(NCCNc3ccc([N+](=O)[O-])c(N)n3)nc2-c2ccc(Cl)cc2Cl)n1
- IC50 [1]: 0.027 µM
- EC50 [2]: 1.07 µM

SMILES: N#Cc1cnc(NCCNc2ncc(-n3ccnc3)c(-c3ccc(Cl)cc3Cl)n2)nc1N
- IC50 [1]: 0.236 µM
- EC50 [2]: 9.44 µM

SMILES: CCOC(=O)c1ccc(NCCNc2ncc(-n3ccnc3)c(-c3ccc(Cl)cc3Cl)n2)nc1
- IC50 [1]: 3.65 µM

SMILES: O=[N+]([O-])c1ccc(NCCNc2ncc(-n3ccnc3)c(-c3ccc(-n4ccnc4)cc3)n2)nc1
- IC50 [1]: 0.124 µM

SMILES: N#Cc1ccc(-c2nc(NCCNc3ccc([N+](=O)[O-])cn3)ncc2C(=O)O)cc1
- IC50 [1]: 0.035 µM
- EC50 [2]: > 10 µM

SMILES: CC(C)c1c[nH]c(-c2cnc(NCCNc3ccc([N+](=O)[O-])c(N)n3)nc2-c2ccc(Cl)cc2Cl)n1
- IC50 [1]: 0.021 µM
- EC50 [2]: 0.09 µM

SMILES: CCOC(=O)C1=C(c2ccncc2)N=C(NCCNc2ccc([N+](=O)[O-])cn2)NC1c1ccc(C(N)=O)cc1 (stereo unspecified)
- IC50 [1]: 3.7 µM

SMILES: O=[N+]([O-])c1ccc(NCCNc2ncc(-n3ccnc3)c(-c3ccc(Cl)cc3)n2)nc1
- IC50 [1]: 0.053 µM
- EC50 [2]: 1.2 µM

SMILES: Nc1nc(NCCNc2ncc(NC(=O)CCCN3CCOCC3)c(-c3ccc(Cl)cc3Cl)n2)ccc1[N+](=O)[O-]
- IC50 [1]: 0.024 µM
- EC50 [2]: 17.7 µM

SMILES: O=[N+]([O-])c1ccc(NCCNc2ncc(-n3ccnc3)c(-c3ccc(Cl)cc3Cl)n2)nc1
- IC50 [1]: 0.006 µM
- EC50 [2]: 0.3 µM

SMILES: CN(C)CC(=O)Nc1cnc(NCCNc2ccc([N+](=O)[O-])c(N)n2)nc1-c1ccc(Cl)cc1Cl
- IC50 [1]: 0.025 µM
- EC50 [2]: 0.67 µM

SMILES: O=[N+]([O-])c1ccc(NCCNc2ncc(-n3ccnc3)c(-c3ccc(N4CCNCC4)cc3)n2)nc1
- IC50 [1]: 0.166 µM

SMILES: Clc1ccc(-c2nc(NCCNc3ncccn3)ncc2-n2ccnc2)c(Cl)c1
- IC50 [1]: > 10 µM

SMILES: CCc1ccc(-c2nc(NCCNc3ccc([N+](=O)[O-])cn3)ncc2-n2ccnc2)cc1
- IC50 [1]: 0.009 µM
- EC50 [2]: 0.1 µM

SMILES: CN(C)CCOC(=O)c1cnc(NCCNc2ccc([N+](=O)[O-])cn2)nc1-c1ccc(C#N)cc1
- IC50 [1]: 0.05 µM
- EC50 [2]: 3.4 µM

SMILES: CN(C)CCN(CCNc1ccc([N+](=O)[O-])cn1)c1ncc(-n2ccnc2)c(-c2ccc(Cl)cc2Cl)n1
- IC50 [1]: 0.035 µM
- EC50 [2]: 0.35 µM

SMILES: CNC(=O)c1cnc(NCCNc2ccc([N+](=O)[O-])cn2)nc1-c1ccc(C#N)cc1
- IC50 [1]: 0.033 µM
- EC50 [2]: > 10 µM

SMILES: CC(C)(C)OC(=O)c1cnc(NCCNc2ccc([N+](=O)[O-])cn2)nc1-c1ccc(C#N)cc1
- IC50 [1]: 0.025 µM

SMILES: O=[N+]([O-])c1ccc(NCCN(CCN2CCCCCC2)c2ncc(-n3ccnc3)c(-c3ccc(Cl)cc3Cl)n2)nc1
- IC50 [1]: 0.032 µM
- EC50 [2]: 0.11 µM

SMILES: N#Cc1ccc(-c2nc(NCCNc3ccc([N+](=O)[O-])cn3)ncc2C(=O)N2CCOCC2)cc1
- IC50 [1]: 0.161 µM

SMILES: Nc1nc(NCCNc2ncc(-c3nc(-c4ccccc4)c[nH]3)c(-c3ccc(Cl)cc3Cl)n2)ccc1[N+](=O)[O-]
- IC50 [1]: 0.001 µM
- EC50 [2]: 0.13 µM

SMILES: N#Cc1ccc(-c2nc(NCCNc3ccc([N+](=O)[O-])cn3)ncc2C(N)=O)cc1
- IC50 [1]: 0.029 µM
- EC50 [2]: > 10 µM

SMILES: O=[N+]([O-])c1ccc(NCCNc2ncc(-c3nnn[nH]3)c(-c3ccc(Cl)cc3Cl)n2)nc1
- IC50 [1]: 0.031 µM
- EC50 [2]: 10 µM

SMILES: N#Cc1ccc(-c2nc(NCCNc3ccc([N+](=O)[O-])cn3)ncc2C(=O)NCc2ccccc2)cc1
- IC50 [1]: 0.075 µM

SMILES: N#Cc1ccc(NCCNc2ncc(-n3ccnc3)c(-c3ccc(Cl)cc3Cl)n2)nc1N
- IC50 [1]: 0.056 µM
- EC50 [2]: 1.01 µM

SMILES: CN(C)c1nc(NCCNc2ncc(-n3ccnc3)c(-c3ccc(Cl)cc3Cl)n2)ccc1[N+](=O)[O-]
- IC50 [1]: 1 µM

SMILES: CNC(=O)Nc1cnc(NCCNc2ccc([N+](=O)[O-])c(N)n2)nc1-c1ccc(Cl)cc1Cl
- IC50 [1]: 0.027 µM
- EC50 [2]: 3 µM

SMILES: N#Cc1ccc(-c2nc(NCCNc3ccc([N+](=O)[O-])cn3)ncc2-n2cncn2)cc1
- IC50 [1]: 0.019 µM
- EC50 [2]: 1 µM

SMILES: Cc1cc(NCCNc2ncc(-n3ccnc3)c(-c3ccc(Cl)cc3Cl)n2)n2ncnc2n1
- IC50 [1]: 0.108 µM
- EC50 [2]: > 10 µM

SMILES: COc1ccccc1-c1nc(NCCNc2ccc([N+](=O)[O-])cn2)ncc1-n1ccnc1
- IC50 [1]: 0.884 µM

SMILES: CCOC(=O)C1=C(CC)N=C(NCCNc2ccc([N+](=O)[O-])cn2)NC1c1ccc(C(N)=O)cc1 (stereo unspecified)
- IC50 [1]: 3.4 µM

SMILES: Clc1ccc(-c2nc(NCCNc3nc4ccc(Cl)cc4s3)ncc2-n2ccnc2)c(Cl)c1
- IC50 [1]: 0.527 µM
- EC50 [2]: 12.7 µM

SMILES: O=[N+]([O-])c1ccc(NCCNc2ncc(-n3ccnc3)c(-c3ccccc3)n2)nc1
- IC50 [1]: 0.197 µM
- EC50 [2]: 23.9 µM

SMILES: N#Cc1ccc(-c2nc(NCCNc3ccc([N+](=O)[O-])cn3)ncc2C(=O)OCCO)cc1
- IC50 [1]: 0.051 µM
- EC50 [2]: 8.3 µM

SMILES: Cc1cc([N+](=O)[O-])cnc1NCCNc1ncc(-n2ccnc2)c(-c2ccc(Cl)cc2Cl)n1
- IC50 [1]: 3.37 µM

SMILES: FC(F)(F)c1ccc(NCCNc2ncc(-n3ccnc3)c(-c3ccc(Cl)cc3Cl)n2)nc1
- IC50 [1]: 0.223 µM
- EC50 [2]: 3.84 µM

SMILES: Cc1ccc(-c2nc(NCCNc3ccc([N+](=O)[O-])cn3)ncc2-n2ccnc2)cc1
- IC50 [1]: 0.034 µM
- EC50 [2]: 0.3 µM

SMILES: CN1CCN(C)C(CN(CCNc2ccc([N+](=O)[O-])cn2)c2ncc(-n3ccnc3)c(-c3ccc(Cl)cc3Cl)n2)C1 (stereo unspecified)
- IC50 [1]: 0.121 µM

SMILES: FC(F)(F)c1ccnc(NCCNc2ncc(-n3ccnc3)c(-c3ccc(Cl)cc3Cl)n2)n1
- IC50 [1]: 0.381 µM

SMILES: O=[N+]([O-])c1ccc(NCCNc2ncc(-n3ccnc3)c(-c3ccc(Cl)c(Cl)c3)n2)nc1
- IC50 [1]: 0.646 µM

SMILES: CCOC(=O)c1c(CC)nc(NCCNc2ccc([N+](=O)[O-])cn2)nc1-c1ccc(C(N)=O)cc1
- IC50 [1]: 0.12 µM
- EC50 [2]: 9.6 µM

SMILES: O=[N+]([O-])c1ccc(OCCNc2ncc(-n3ccnc3)c(-c3ccc(Cl)cc3Cl)n2)nc1
- IC50 [1]: 2.83 µM

SMILES: O=[N+]([O-])c1cnc(NCCNc2ncc(-n3ccnc3)c(-c3ccc(Cl)cc3Cl)n2)s1
- IC50 [1]: 0.024 µM
- EC50 [2]: > 10 µM

SMILES: O=[N+]([O-])c1ccc(NCCNc2ncc(-n3ccnc3)c(-c3ccc(Cl)cc3Cl)n2)nc1O
- IC50 [1]: 1 µM

SMILES: CNc1nc(NCCNc2ncc(-n3ccnc3)c(-c3ccc(Cl)cc3Cl)n2)ccc1[N+](=O)[O-]
- IC50 [1]: 0.576 µM

SMILES: CC(=O)c1ccc(NCCNc2ncc(-n3ccnc3)c(-c3ccc(Cl)cc3Cl)n2)nc1
- IC50 [1]: 5.95 µM

SMILES: COc1ccc(OC)c(-c2nc(NCCNc3ccc([N+](=O)[O-])cn3)ncc2-n2ccnc2)c1
- IC50 [1]: 4.87 µM

SMILES: COCCN(CCNc1ccc([N+](=O)[O-])cn1)c1ncc(-n2ccnc2)c(-c2ccc(Cl)cc2Cl)n1
- IC50 [1]: 0.175 µM

SMILES: CC(C)(C)OC(=O)N1CCN(c2ccc(-c3nc(NCCNc4ccc([N+](=O)[O-])cn4)ncc3-n3ccnc3)cc2)CC1
- IC50 [1]: 1.93 µM

SMILES: COc1nc(NCCNc2ncc(-n3ccnc3)c(-c3ccc(Cl)cc3Cl)n2)ccc1[N+](=O)[O-]
- IC50 [1]: 0.081 µM

SMILES: N#Cc1ccnc(NCCNc2ncc(-n3ccnc3)c(-c3ccc(Cl)cc3Cl)n2)c1
- IC50 [1]: 0.2 µM

SMILES: N#Cc1ccc(-c2nc(NCCNc3ccc([N+](=O)[O-])cn3)ncc2C(=O)NCc2ccncc2)cc1
- IC50 [1]: 0.047 µM

SMILES: CCOC(=O)c1c(-c2ccncc2)nc(NCCNc2ccc([N+](=O)[O-])cn2)nc1-c1ccc(C(N)=O)cc1
- IC50 [1]: 0.14 µM

SMILES: CN1CCN(c2ccc(-c3nc(NCCNc4ccc([N+](=O)[O-])cn4)ncc3-n3ccnc3)cc2)CC1
- IC50 [1]: 1.12 µM

SMILES: Cc1cc(NCCNc2ncc(-n3ccnc3)c(-c3ccc(Cl)cc3Cl)n2)nc(N)n1
- IC50 [1]: > 10 µM

SMILES: COc1cccc(-c2nc(NCCNc3ccc([N+](=O)[O-])cn3)ncc2-n2ccnc2)c1
- IC50 [1]: 0.347 µM

SMILES: N#Cc1ccc(-c2nc(NCCNc3ccc([N+](=O)[O-])cn3)ncc2C(=O)NCCN)cc1
- IC50 [1]: 0.153 µM
